Measured values from patent US11324714B2 (priority 2008, dated 2022).

Test system: advanced lymphomas
Test: Phase II multi-center trial in patients with advanced lymphomas
Type: in vivo, human
Method: A Phase II multi-center trial of SGLU-1 (darinaparsin) was conducted in patients diagnosed with advanced lymphomas. Eligible patients required therapy and received at least 1 prior therapy. Patients received 300 mg/m^2 of darinaparsin intravenously for 5 consecutive days every 28 days (1 cycle) and were then evaluated for efficacy and safety by standard criteria. Treatment continued until toxicity or progression. To date the study has accrued 22 patients (15 non Hodgkin's [NHL], 7 Hodgkin's); 12 are male and 10 are female. Median age at baseline was 60.5 years (range: 28-80), ECOG performance status was ≤2, and median number of prior therapies was 3 (range: 1-6). Thirteen subjects have received at least 2 cycles of SGLU-1 and are evaluable for efficacy. Of these, 1 (diagnosed with peripheral T-cell lymphoma (PTCL)) has achieved a complete response (CR), 3 (diagnosed with diffuse large B-cell, marginal zone, and Hodgkin's nodular sclerosis, respectively) have achieved partial responses (PRs), and 2 patients with NHL have achieved stable disease (SD). In the patient with marginal zone lymphoma who achieved PR, no evidence for macroscopic disease was present, but microscopic disease was detectable on random biopsies from normal appearing gastric mucosa. All responders had been heavily pretreated (PTCL: CHOP (cyclophosphamide, doxorubicin, vincristine, and prednisolone)×6, ICE (ifosfamide, carboplatin and etoposide)×1, and EPOCH (etoposide, vincristine, doxorubicin, cyclophosphamide, and prednisone)×2; diffuse B-cell: RCHOP (rituximab, cyclophosphamide, doxorubicin, vincristine, and prednisolone)×5, RICE (rituximab, ifosfamide, carboplatin and etoposide)×3, and radiation therapy; marginal zone: rituximab×8, RCVP (rituximab, cyclophosphamide, vincristine and prednisolone)×1, and gemcitabine×1; and Hodgkin's: ICE×1, CBV (cyclophosphamide, carmustine and etoposide)×1, gemcitabine+MDX-060 (Medarex)×6). A total of 49 cycles of SGLU-1 have been administered. The only Grade 3 adverse event (AE) considered drug-related was wheezing. A total of 12 subjects have reported 37 serious adverse events (SAEs) while on study. Of these, only 2 had SAEs that were considered drug-related (neutropenic fever, fall). […] Initial responses (1 CR, 3 PRs, 2 SDs) have been observed among 13 evaluable patients.

[1] = 300 mg/m^2 i.v. 5 consecutive days every 28 days, of 13 evaluable subjects

With `C[As](C)SC[C@H](NC(=O)CC[C@H](N)C(=O)O)C(=O)NCC(=O)O` [SGLU-1, S-(dimethylarsino) glutathione] the “complete response (CR)” value [1] was 1 patients, the “partial responses (PRs)” value [1] was 3 patients and the “Grade 3 adverse event (AE) considered drug-related” value (22 patients, 49 cycles) was “wheezing”. The “serious adverse events (SAEs) reported” value (22 patients, 49 cycles) was 37, the “subjects reporting serious adverse events (SAEs)” value (22 patients, 49 cycles) was 12 subjects and the tolerability (heavily pretreated patients with advanced lymphoma) was “very well tolerated”. For the same compound, the “subjects with SAEs considered drug-related” value (neutropenic fever, fall) was 2 subjects.
